Series [1] in a line: Evaluation of in vivo pharmacokinetics (blood and brain concentrations, LC-MS/MS). The settings on record: male, rat, SD rats, brain. As to the method:
Pharmacological test example 4: Evaluation of in vivo pharmacokinetics
To SD rats (male, 7 weeks old), the test compound was orally administered (p. o.) at an amount of 50 mg/kg bw or intravenously administered (i.v.) at an amount of 1 mg/kg bw and the concentrations in the blood and brain were measured up to 3 hours. The administration vehicle was an 80% PEG 400 aqueous solution. The blood was collected under isoflurane inhalational anesthesia and the brain was harvested after the rats were sacrificed. The plasma was separated from the blood. The brain was homogenized after addition of a three-fold volume of PBS and then methanol was added thereto. Thus the prepared test samples were subjected to measurement. The measurement was performed by LC-MS/MS (Applied Biosystems and Waters).
The blood concentration changes of the compounds of Example 2 and Example 2 (2) ((1E,6E)-1-(1H-indol-6-yl)-7-[2-methoxy-4-(2-pyridylmethoxy)phenyl]hepta-1,6-diene-3,5-dione) after oral administration (p.o.) thereof are shown in FIG. 2. The brain concentration changes of the compounds after intravenous administration (i.v.) and oral administration (p.o.) thereof are shown in Table 2.

Series [2] addresses recombinant three-repeat microtubule-binding domain (3R-MBD) of tau protein (Homo sapiens, UniProt P10636). As to the kind of experiment: Determination of tau aggregation inhibitory activity (heparin-induced, thioflavin T fluorescence; electron microscope). The format is biochemical. The settings on record: for IC50: 3R-MBD tau 10 μM, heparin 10 μM, 37° C. for 16 hours, thioflavin T, read-out: IC50 (μM) Test example 1 (tau aggregation inhibitory activity); for tau aggregation inhibitory activity at 1 μM: compound at 1 μM. As to the method:
Pharmacological Test Example 1: Determination of Tau Aggregation Inhibitory Activity
A recombinant three-repeat microtubule-binding domain (3R-MBD) of tau protein was expressed in E. coli and was purified and used for the experiment. The purified tau solution was diluted with a 50 mM Tris-HCl buffer (pH 7.6) to a final concentration of 10 μM. The test compounds were prepared using dimethylsulfoxide (DMSO) at 20-fold of their final concentrations and added to the plate so that the DMSO concentration would be 5%. Heparin was added to the plate so that the final concentration would be 10 μM and the plate was left to stand at 37° C. for 16 hours. Thioflavin T was added to the plate so that the concentration would be 10 μM and the fluorescence intensity was measured with a fluorescence plate reader (PerkinElmer, Inc.) (excitation wavelength: 440 nm; emission wavelength: 480 nm).
(§1) The final concentration of each compound at the time of measurement was set at 0.1, 0.3, 1, 3, and 10 μM. The sample to which only DMSO was added was used as a negative control and its fluorescence intensity was taken as 0% inhibitory activity.
The samples were placed on a grid and washed with distilled water. A 1 mM phosphotungstic acid aqueous solution was added to the samples. The samples were washed, dried overnight, and observed.

Series [3] deals with T1, recombinant human β-secretase (Homo sapiens, UniProt P56817).
T1 construct: purchased Invitrogen
As to the kind of experiment: Determination of β-secretase inhibitory activity (BACE-1 FRET assay Kit). The class given is biochemical. The settings on record: for IC50: recombinant human β-secretase, fluorescent substrate peptide, 1 hour, read-out: IC50 (μM) Test example 2 (β-secretase inhibitory activity); for inhibition at 1 µM: compound at 1 μM. On the procedure:
Pharmacological Test Example 2: Determination of β-Secretase Inhibitory Activity
The β-secretase inhibitory activity was measured with BACE-1 FRET assay Kit (Invitrogen). The test compounds were prepared using DMSO at 30-fold of their final concentrations and dissolved so that the DMSO concentration would be 10%. To each of the solutions, an equal volume of a recombinant human β-secretase (1 U/mL) dissolved in the assay buffer and an equal volume of fluorescent substrate peptide (2.5 nM) were added and the solutions were left to stand for 1 hour. The fluorescence intensity was measured with a fluorescence plate reader (excitation wavelength: 545 nm; emission wavelength: 590 nm).
The final concentration of each compound at the time of measurement was set at 0.1, 0.3, 1, 3, and 10 μM, at 0.3, 1, 3, 10, and 30 μM, or at 1, 3, 10, 30, and 100 μM.

For another series, the target named is T2, Aβ 1-42 (Homo sapiens, UniProt P05067).
T2 construct: Aβ 1-42 (Peptide Institute, Inc.) was dissolved in 0.3% ammonia water; purchased Peptide Institute, Inc
Nature of the series: Determination of Aβ aggregation inhibitory activity (thioflavin T fluorescence). The format is biochemical. The conditions noted are these: for IC50: Aβ 1-42, 37° C. for 24 hours, thioflavin T, read-out: IC50 (μM) Test example 3 (Aβ aggregation inhibitory activity). On the procedure: Pharmacological test example 3: Determination of Aβ aggregation inhibitory activity
Aβ 1-42 (Peptide Institute, Inc.) was dissolved in 0.3% ammonia water so that the concentration would be 0.5 mM and then diluted with PBS to 20 μM. The test compounds were prepared using DMSO at 100-fold of their final concentrations and adjusted so that the DMSO concentration would be 2%. The Aβ solution and each of the test compound solutions were mixed at an equivalent ratio and the mixtures were incubated at 37° C. for 24 hours. To each of the mixtures, an equal volume of a thioflavin T solution adjusted with a 100 mM Tris-glycine buffer (pH 8.5) to 6 μM was added. The fluorescence intensity was measured with a fluorescence plate reader (excitation wavelength: 440 nm; emission wavelength: 480 nm).
as §1

Structures are written as SMILES. Read-outs that look alike come from different tables or passages of the source.

recombinant three-repeat microtubule-binding domain (3R-MBD) of tau protein, sequence (P10636 186-279 isoform P10636-2 limits assumed): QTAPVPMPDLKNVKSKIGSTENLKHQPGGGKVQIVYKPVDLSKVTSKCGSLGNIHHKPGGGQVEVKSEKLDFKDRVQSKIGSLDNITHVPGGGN
T2 sequence (P05067 672-713): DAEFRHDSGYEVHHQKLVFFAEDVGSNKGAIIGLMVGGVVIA
T1 sequence (P56817 46-501): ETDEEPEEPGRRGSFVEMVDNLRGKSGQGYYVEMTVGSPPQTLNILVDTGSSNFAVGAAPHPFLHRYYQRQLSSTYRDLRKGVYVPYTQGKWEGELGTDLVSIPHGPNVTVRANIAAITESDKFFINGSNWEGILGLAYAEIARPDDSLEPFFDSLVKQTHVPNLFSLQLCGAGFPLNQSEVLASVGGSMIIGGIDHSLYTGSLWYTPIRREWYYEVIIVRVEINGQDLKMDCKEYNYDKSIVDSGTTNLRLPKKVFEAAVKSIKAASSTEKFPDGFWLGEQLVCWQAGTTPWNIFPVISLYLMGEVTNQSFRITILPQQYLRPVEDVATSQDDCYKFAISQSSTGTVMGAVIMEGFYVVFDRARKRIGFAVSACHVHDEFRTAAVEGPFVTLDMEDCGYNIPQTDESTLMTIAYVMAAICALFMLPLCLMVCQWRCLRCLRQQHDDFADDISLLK

With `COc1cc(OCc2ccccn2)ccc1/C=C/C(=O)CC(=O)/C=C/c1ccc2cc[nH]c2c1` [Example 2 (2), (1E,6E)-1-(1H-indol-6-yl)-7-[2-methoxy-4-(2-pyridylmethoxy)phenyl]hepta-1,6-diene-3,5-dione], the concentration at 5 min in series [1] (intravenous 1 mg/kg bw, 5 min, read-out: brain concentration i.v. 5 min) amounted to 5.15 ± 3.34 ng/mL. In addition, the concentration at 180 min stood at 0.93 ± 0.67 ng/mL in series [1] (intravenous 1 mg/kg bw, read-out: brain concentration i.v. 180 min) and 18 ± 30.8 ng/mL in series [1] (oral 50 mg/kg bw, read-out: brain concentration p.o. 180 min). Also, the concentration at 60 min in series [1] (oral 50 mg/kg bw, 60 min, read-out: brain concentration p.o. 60 min) was determined as 0 ng/mL.
Broadly, the IC50 is the concentration that inhibits the measured activity by half. As usually defined, the melting point is the temperature, or range, at which the solid turns liquid. In turn, `CN1CCN(c2ccc(/C=C/c3cc(/C=C/c4ccc5cc[nH]c5c4)[nH]n3)cc2)CC1` [Example 102, 5-[(1E)-2-(1H-indol-6-yl)ethenyl]-3-[(1E)-2-[4-(4-methylpiperazin-1-yl)phenyl]ethenyl]-1H-pyrazole] gave a melting point of 192 to 198 °C. In addition, the concentration for half-maximal inhibition (IC50) in series [2] was 1.46 µM. For the same molecule, in series [3], the half-inhibitory concentration (IC50) was 1.06 µM. Further, the IC50 on Aβ 1-42 was found to be 4.33 µM.
The inhibition is the relative decrease from the control value, in per cent. `COc1cc(OCc2ccccn2)ccc1/C=C/c1cc(/C=C/c2ccc(OCc3ccccn3)cc2OC)[nH]n1` [Example 110, 3,5-bis[(1E)-2-[2-methoxy-4-(2-pyridylmethoxy)phenyl]ethenyl]-1H-pyrazole] showed a melting point of 195 to 197 °C. Moreover, the “tau aggregation inhibitory activity at 1 μM” value in series [2] came out at 0%. In addition, in series [3], the inhibition at 1 µM came to 12%. Besides, the IC50 on Aβ 1-42 turned out to be 1.9 µM.
Regarding `COc1cc(OCc2ccccn2)ccc1/C=C/c1cc(/C=C/c2ccc(O)c(N)c2)[nH]n1` [Example 111, 3-[(1E)-2-[2-methoxy-4-(2-pyridylmethoxy)phenyl]ethenyl]-5-[(1E)-2-(3-amino-4-hydroxy-phenyl)ethenyl]-1H-pyrazole], the melting point was in the range of 123 to 126 °C. Moreover, the IC50 in series [2] was determined as 1.46 µM. In series [3], the IC50 is 2.89 µM. The IC50 on Aβ 1-42 was determined as 5.05 µM.
Molecule `C(=C\c1cc(/C=C/c2ccc3cc[nH]c3c2)[nH]n1)/c1ccc2cc[nH]c2c1` [Example 112, 3,5-bis[(1E)-2-(1H-indol-6-yl)ethenyl]-1H-pyrazole] yielded a melting point of 289 to 291 °C. Also, the “tau aggregation inhibitory activity at 1 μM” value in series [2] is 24%. Further, the inhibition at 1 µM in series [3] was 30%. Further, the IC50 on Aβ 1-42 came out at 2.8 µM. This molecule also yielded an inhibition at 3 µM against Aβ 1-42 (compound at 3 μM) of 17%.

The record behind these values is US9399635B2, “Pyrazole derivative” (GREEN TECH CO., LTD., priority 2011, dated 2016).
